pIC50: −log10 of the molar value.
Columns and labels:
AD169^R (IE1 expression) = assay: Western blot (immunoblot) of IE1 expression in AD169^R-infected cells; format: cell-based, Human cytomegalovirus; settings: NHDF cells, 24 hpi; MBX-4992 1-10 μM, ganciclovir 5 μM, convallotoxin 0.01 μM
Protocol: The molecular weight markers and respective proteins are indicated.
FIGS. 12A and B are Western Blot assays showing that MBXC-4336 limits expression of IE1 in fibroblasts and epithelial cells. Total cell lysates from AD169^R-infected (MOI 0.2) NHDF (A) and ARPE-19 (B) cells pre-treated with DMSO, MBX-4336 (0, 1, 5, 10, or 20 μM), or heparin (50 μg/mL) collected at 48 hpi were subjected to Western blot analysis using a rabbit anti-IE-1 antibody (lanes 1-7) and an anti-GAPDH antibody (lanes 8-14) as a loading control. The molecular weight markers and respective proteins are indicated.
Total cell lysates from virus infected NHDF cells treated with compounds were created through SDS-lysis (10^4/100 uL of 1% SDS) of at least three rounds of heating at 95° C. for 3 min and vigorous agitation. The total cell lysates were resolved using an SDS-polyacrylamide gel (12.5%), transferred to a PVDF membrane using a semi-dry apparatus. The membrane was then incubated with 1% BSA/PBS for 1 hr at room temperature followed by incubation with anti-IE1 and anti-GAPDH. Finally, the respective secondary antibody conjugated with HRP was incubated with membrane followed by detection using ECL reagents (Millipore).
Next, inhibition of the expression of IE1 in AD169^R-infected cells treated with MBX-4992 was examined by immunoblot analysis (FIG. 4E). […] Collectively, these findings further indicate that MBX-4992 effectively prevents the expression of the immediate-early genes during a CMV infection.

HCMV AD169 = assay: Herpes virus panel neutralization, HCMV AD169; format: cell-based, Human cytomegalovirus; settings: Human betaherpesvirus 5; HCMV AD169; read-out: IC50
Protocol: (§1) To determine the specificity of MBX-4992, additional neutralization experiments were conducted using a panel of herpes viruses performed in the presence of MBX-4992. […] Collectively, the antiviral activity of MBX-4992 is equivalent to that of GCV indicating specific inhibition of CMV replication.

HCMV GDGr K17 (GCV^R) = assay: Herpes virus panel neutralization, GCV-resistant HCMV; format: cell-based, Human cytomegalovirus; settings: Human betaherpesvirus 5
Protocol: as §1

MCMV Smith = assay: Herpes virus panel neutralization, MCMV; format: cell-based, Murine cytomegalovirus; settings: Murid betaherpesvirus 1; MCMV Smith; read-out: IC50
Protocol: as §1

AD169^R CMV virus = assay: Plaque reduction (dissemination) assay, prophylactic treatment; format: cell-based, Human cytomegalovirus; settings: 2.5 μM, 10 dpi
Protocol: FIG. 8A-H are fluorescence images (A & B) and graphs showing that NAPA compounds MBX-4992 and MBXC-4336 work in both prophylactic and therapeutic settings to inhibit HCMV infection. ARPE-19 cells (A to D) and NHDF cells (E and F) treated with increasing concentrations (0, 1, 5, 20, and 50 μM) of MBX-4992, MBXC-4336, or ganciclovir (2.5 μM) were infected with AD169^R (MOI 0.025) and analyzed for viral plaques of >5,000 μm^2 (C and E) and >10,000 μm^2 (D and F) based on GFP fluorescence. The representative images of plaques from AD169^R-infected ARPE-19 cells treated MBX-4992, MBXC-4336, ganciclovir are shown (A and B). MBX-4992, MBXC-4336 (G and H), and ganciclovir treatment at 48 hpi of AD169^R-infected ARPE-19 cells (MOI 0.025) were analyzed for virus plaques >5,000 μm^2 and >10,000 μm^2 at 10 dpi. The normalized plaque number was designated to be 100 based on plaques from DMSO treated cells. Statistical tests were performed using ordinary one-way ANOVA with multiple comparisons to DMSO treated cells as a control and a Dunnett's post-test; *, p<0.05; **, p<0.01; ***, p<0.001; ****, p<0.0001.
For the prophylactic treatment analysis, the plaque assay was performed on ARPE-19 and NHDF cells (4×10^4) in a 24-well plate. The cells were pretreated for 1 hour with either MBX-4992 or MBXC-4336 (1-50 μM), DMSO, or ganciclovir (2.5 μM) and followed by virus infection with AD169^R. Following a 2-hour incubation at 37° C., the inoculum was removed and cells were overlaid with 1% low melt sea agarose. Upon solidification of the agarose, MBX-4992, MBXC-4336, DMSO, or ganciclovir in media was added at the indicated concentration. The drugs were replaced every 3 days. The cells were examined using Brightfield and GFP fluorescence to quantify the number and size of virus plaques using a Celigo Cytometer at 10 dpi.
To address whether NAPA compounds can limit virus dissemination in epithelial cells, we analyzed the inhibitory properties of MBX-4992 and MBXC-4336 using a plaque reduction assay by designating a cluster of virus infected cells as a virus plaque (Parsons et al., Antivir. Res., 193:105124 (2021)) The results are shown in FIG. 8A-H.
To evaluate the prophylactic function of the NAPA compounds, ARPE-19 cells and NHDF cells treated with DMSO, MBX-4992, MBXC-4336 (0-50 μM), or ganciclovir (2.5 μM) were infected with AD169^R CMV virus and analyzed for virus plaques at 10 dpi based on GFP fluorescence (FIG. 8A-F). A cluster of virus infected cells was designated a viral plaque based on an average cluster area of 5,000 μm^2 or 10,000 μm^2 (FIG. 8A-B) using a Celigo cytometer.

TB40/E = assay: Plaque assay, MBX-4992 and ganciclovir alone and in combination; format: cell-based, Human cytomegalovirus; settings: ARPE-19 and NHDF cells, 10 dpi; MBX-4992 1-20 μM, ganciclovir 2.5 μM
Protocol: At 10 day post-infection, representative whole well images of plaques >10,000 μm^2 (A and B) were quantified based on GFP fluorescence intensity and calculated relative to DMSO controls (C and D). Statistical tests were performed using ordinary one-way ANOVA with multiple comparisons to DMSO treated cells as a control and a Dunnett's post-test. *, p<0.05; **, p<0.01; ***, p<0.001; ****, p<0.0001.
At 10 days post-infection, representative whole well images of plaques >10,000 μm^2 (A and B) were quantified based on GFP fluorescence intensity and calculated relative to DMSO controls (C and D).

NHDF cells [1] = assay: Cell number by Hoechst stain (cell proliferation); format: cell-based, human; settings: up to 50 μM, 6 day period; cycloheximide 50 μg/mL
Protocol: (§2) Fibroblasts were treated with increasing concentrations of MBX-4992 and MBXC-4336 for up to 6 days and cell number was measured periodically using Hoechst stain to quantify cell proliferation (A and B). Cyclohexamide (CHX) and DMSO (−) were used as positive and negative controls for cytotoxicity respectively. Cell cytostaticity (C and D) was assessed using ATP-based CellTiter Glo luciferase assay following extended incubation with increasing concentrations of MBX-4992 and MBXC-4336 for 1 or 6 days. Relative light units (RLU) were measured following cell lysis and normalized to DMSO treated cells for each time point.
(§3) The CellTiter Glo Luminescent Assay (Promega Inc, Madison, WI) was performed according to the manufacturer's instruction. NHDF cells (10^4) were plated in a 96-well plate overnight and treated with MBX-4992 or MXC-4336 ([…]) in triplicate for up to 6 days. Cyclohexamide (50 μg/mL) was used as a control. CellTiter Glo substrate was added in a 1:1 ratio with media and CellTiter-Glo reagent followed by the analysis of luciferase activity (relative light units, RLU) using a BioTek Synergy H1 microplate reader. In parallel, an identical plate was labelled with Hoescht reagent (25 μg/mL) to quantify the cell number using a Celigo Cytometer.
(§4) Next, the cytostaticity and cytotoxicity of treatment with MBX-4992 and MBXC-4336 was analyzed. […]

NHDF cells [2] = assay: CellTiter Glo ATP luciferase assay; format: cell-based, human; settings: 0-50 μM, 1 or 6 days; cycloheximide 50 μg/mL
Protocol: as §2, §3, §4

AD169^R [3] = assay: Virus pre-incubation / washout study; format: cell-based, Human cytomegalovirus; settings: virus pre-incubated, compound washed out; MBX-4992 10 μM, heparin 50 μg/ml
Protocol: (B) Based on the schematic, AD169^R (MOI 0.2) was pre-incubated with DMSO, MBX-4992, or heparin for one hour before being added to NHDF cells. Virus/compound mix was washed out after 30 minutes as indicated and either unchanged or replaced with media containing DMSO, MBX-4992, or heparin. Virus infection was quantified at 24 hpi GFP fluorescence. Percent infection was normalized to untreated cells.
NHDF cells (10^4) plated overnight in a 96-well plate were incubated at 4° C. for 30 minutes with AD169^R CMV virus pretreated with MBX-4992 (10 μM), Heparin (50 μg/mL) or DMSO for 1 hour at room temperature (in triplicate). For 2/3rd of the samples, media was aspirated and half of the wells received DMSO media, regardless of which drug the virus was exposed to, or MBX-4992 (10 μM), or Heparin (50 μg/mL) overnight. At 18 hpi, the cells were fixed with 4% paraformaldehyde, stained with a rabbit anti-IE1 antibody followed by an anti-rabbit Alexa 647, and analyzed using the Celigo cytometer. The DMSO condition that was not aspirated post binding was set as 100% infection.
To further characterize the mechanism of action, pre-incubation/washout studies were performed using AD169^R and MBX-4992. […] At 18 hpi, cells were immunostained with an anti-IE1 antibody as a readout for infection and quantified using a Celigo cytometer. […]

AD169^R [4] = assay: Cells pre-incubation / washout study; format: cell-based, Human cytomegalovirus; settings: cells pre-treated; drugs not removed or added back to washed-out cells
Protocol: (C) NHDF cells were pre-incubated with DMSO, MBX-4992 or heparin prior to virus addition. After addition of AD169^R (MOI 0.2) for 30 min, media was either unchanged or replaced with media containing DMSO, MBX-4992, or heparin. Virus infection was quantified at 24 hpi by GFP fluorescence. Percent infection was normalized to untreated cells. Statistical tests were performed using ordinary one-way ANOVA with multiple comparisons to DMSO treated cells as a control and a Dunnett's post-test: *, p<0.05; ****, p<0.0001.
NHDF cells (10^4) plated overnight in a 96-well plate were pretreated with MBX-4992 (10 μM), heparin (50 μg/mL) or DMSO for 1 hour at 37° C. The plate was then placed at 4° C. for 5 minutes followed by the addition of AD169^R CMV virus for 30 minutes. 2/3rd of the samples were aspirated post binding. Half of those samples received DMSO media, regardless of the drug the cells were previously exposed to. The remaining wells received either MBX-4992 (10 μM) or Heparin (50 μg/mL) overnight. At 18 hpi, the cells were fixed with 4% paraformaldehyde, stained with a rabbit anti-IE1 antibody followed by an anti-rabbit Alexa 647, and analyzed using the Celigo cytometer. The DMSO condition that was not aspirated post binding was set as 100% infection.
We next examined whether pre-treating cells with MBX-4992 can limit virus infection. Cells were pre-treated with MBX-4992 or heparin for […] followed by the addition of AD169^R for 30 min at 4° C. The cells were either washed out or unchanged as indicated and replaced with media containing DMSO, MBX-4992, or heparin followed by incubation at 37° C. At 18 hpi, virus infection was evaluated using a Celigo cytometer.

Nc1nc(O)c2ncn(COC(CO)CO)c2n1 [ganciclovir, reference compound]
IE1 expression by immunoblot (AD169^R (IE1 expression)): did not impact infection
pIC50 (HCMV AD169): 6.05
pIC50 (HCMV GDGr K17 (GCV^R)): 4.98
pIC50 (MCMV Smith): 6.70
reduction of plaque number (AD169^R CMV virus): ~50%
viral plaques >10,000 μm^2, single drug (TB40/E): decreased

C[C@@H]1C[C@@H]([C@H](O)CC2CC(=O)NC(=O)C2)C(=O)[C@@H](C)C1 [cycloheximide, reference compound]
cell number (NHDF cells [1]): dramatic decrease in cell number and luciferase activity
luciferase signal (ATP levels) (NHDF cells [2]): dramatic decrease in cell number and luciferase activity

heparin [reference compound]
decrease of infection after washing out (AD169^R [3]): positive control for inhibition
virus infection, drug not removed or added back (AD169^R [4]): significantly inhibited virus infection
